Read-outs that look alike come from different tables or passages of the source.
Tested on: 407 cancer cell lines
Experiment: Cell viability of cancer cell lines (IC50), CellTiter-Glo Viability Assay, 96 h
Format: cell-based
Conditions: for IC50: read-out: Absolute IC50
Experimental: Viability was determined by using the 50% inhibitory concentration (IC50) as determined with the CellTiter-Glo® Viability Assay (Promega).
Experiments were initiated by first thawing and equilibrating the CellTiter-Glo® Buffer to room temperature. The lyophilized CellTiter-Glo® Substrate was also equilibrated to room temperature. The lyophilized substrate was reconstituted with the CellTiter-Glo® buffer to form the CellTiter-Glo® Reagent.
Cells were harvested during the logarithmic growth period, counted, and the cell concentration adjusted to 4.44×10^4 cells/mL using culture medium.
Cells were allowed to grow overnight and the following day, the TO reading was obtained by adding 10 μL culture medium to each well of Plate A. The plate was allowed to equilibrate at room temperature for thirty minutes, after which 50 μL CellTiter-Glo® reagent was added to each well. The contents were mixed for 5 min on an orbital shaker to induce cell lysis. Plates were incubated for 20 minutes to stabilize the luminescent signal and the TO luminescence recorded.
Test plate B was incubated for 96 h in the humidified incubator at 37° C. with 5% CO2.
Following the incubation, the plate was equilibrated at room temperature for thirty minutes. CellTiter-Glo® (50 μL) was added to each well of the plate and contents mixed for five minutes on an orbital shaker to induce cell lysis. The luminescent signal was allowed to stabilize at room temperature for 20 minutes and the luminescence recorded.
IC50 (EC50) was calculated using a dose-response curve, fitted using a nonlinear regression model with a sigmoidal dose response. Survival rate was calculated using the formula:
The Surviving rate (%)=(LumTest article−LumMedium control)/(LumNon-treated−LumMedium control)×100%.
Absolute IC50 (EC50) was calculated according to the dose-response curve generated by the statistical software (GraphPad Prism 5.0).

## Cc1nn(-c2nc(-c3ccc(C(F)(F)F)cc3)c(SC(C)C)s2)c(C(=O)O)c1-c1cccc(F)c1 [Compound A197, 4-(3-fluorophenyl)-1-(5-(isopropylthio)-4-(4-(trifluoromethyl)phenyl)thiazol-2-yl)-3-methyl-1H-pyrazole-5-carboxylic acid]
22Rv1 cells, 96 h
  % inhibition at top conc.: 68.15%
5637 cells, 96 h
  % inhibition at top conc.: 68.06%
96 h, 5637 cells, 96 h
  IC50: 490 nM
96 h, A3/KAW cells, 96 h
  IC50: 290 nM
96 h, ASH-3 cells, 96 h
  IC50: > 30000 nM
96 h, C4-2, 96 h
  IC50: > 30000 nM
96 h, CCK-81 cells, 96 h
  IC50: 320 nM
96 h, COV644 cells, 96 h
  IC50: > 30000 nM
96 h, H4 cells, 96 h
  IC50: 730 nM
96 h, HCC 94 cells, 96 h
  IC50: 820 nM
96 h, HM-7, 96 h
  IC50: > 30000 nM
96 h, IHH-4 cells, 96 h
  IC50: 900 nM
96 h, IM95m cells, 96 h
  IC50: 780 nM
96 h, JHH-5 cells, 96 h
  IC50: > 30000 nM
96 h, M059K cells, 96 h
  IC50: 1660 nM
96 h, MC/CAR cells, 96 h
  IC50: 3280 nM
96 h, NAMALWA cells, 96 h
  IC50: 510 nM
96 h, OCUM-2D cells, 96 h
  IC50: 1150 nM
96 h, OCUM-2M cells, 96 h
  IC50: 830 nM
96 h, RBE cells, 96 h
  IC50: 840 nM
96 h, SCH cells, 96 h
  IC50: > 30000 nM
96 h, SNU-719 cells, 96 h
  IC50: > 30000 nM
96 h, SNU-761 cells, 96 h
  IC50: 1110 nM
96 h, SNU-2535 cells, 96 h
  IC50: 750 nM
96 h, SNU-C5 cells, 96 h
  IC50: > 30000 nM
96 h, SW 156 cells, 96 h
  IC50: 2390 nM
96 h, T.Tn cells, 96 h
  IC50: 840 nM
96 h, TJ905 cells, 96 h
  IC50: > 30000 nM
96 h, YCC-1 cells, 96 h
  IC50: > 30000 nM
96 h, YCC-2 cells, 96 h
  IC50: > 30000 nM
96 h, YCC-6 cells, 96 h
  IC50: 540 nM
96 h, YCC-10, 96 h
  IC50: > 30000 nM
A875, 96 h, A875 cells, 96 h
  IC50: > 30000 nM
A875 cells, 96 h
  % inhibition at top conc.: 10.68%
A2058, 96 h
  % inhibition at top conc.: 29.09%
A2780 cells, 96 h
  % inhibition at top conc.: 69.48%
A2780cis, 96 h, A2780cis cells, 96 h
  IC50: 540 nM
A-204 cells, 96 h
  % inhibition at top conc.: 37.77%
A-375, 96 h
  % inhibition at top conc.: 52.11%
A-431, 96 h
  % inhibition at top conc.: 66.83%
AGS cells, 96 h
  % inhibition at top conc.: 28.18%
AN3 CA, 96 h
  % inhibition at top conc.: 35.67%
AsPC-1 cells, 96 h
  % inhibition at top conc.: 34.71%
C4-2, 96 h
  % inhibition at top conc.: 45.07%
C666-1 cells, 96 h
  % inhibition at top conc.: 36.20%
CADO-ES1, CADO-ES1
  IC50: 210 nM
CAMA-1, 96 h
  % inhibition at top conc.: 54.72%
COLO 205, 96 h
  % inhibition at top conc.: 60.57%
COLO 320DM, 96 h
  % inhibition at top conc.: 72.92%
COV644 cells, 96 h
  % inhibition at top conc.: 31.57%
Calu-3, 96 h
  % inhibition at top conc.: 65.15%
CoC1, 96 h, CoC1/DDP cells, 96 h
  IC50: > 30000 nM
CoC1, 96 h, CoC1 cells, 96 h
  IC50: 1320 nM
DMS 53 cells, 96 h
  % inhibition at top conc.: 85.18%
DOHH-2 cells, 96 h
  % inhibition at top conc.: 99.99%
DU 145, 96 h
  % inhibition at top conc.: 66.37%
EBC-1, 96 h
  % inhibition at top conc.: 42.21%
EFM-192A, 96 h
  % inhibition at top conc.: 49.39%
EFM-192A, 96 h, EFM-192A, 96 h
  IC50: 520 nM
ES-2 cells, 96 h
  % inhibition at top conc.: 44.22%
FaDu, 96 h
  % inhibition at top conc.: 62.82%
GTL-16 cells, 96 h
  % inhibition at top conc.: 54.64%
HBL1, HBL-1
  IC50: 710 nM
HCC827 cells, 96 h
  % inhibition at top conc.: 63.74%
HCC1500, HCC1500
  IC50: > 30000 nM
HCC2218, 96 h
  % inhibition at top conc.: 33.43%
HCC4006, 96 h
  % inhibition at top conc.: 60.70%
HCCC9810, HCCC-9810
  IC50: > 30000 nM
HCCLM3 cells, 96 h
  % inhibition at top conc.: 29.79%
HGC-27 cells, 96 h
  % inhibition at top conc.: 90.57%
HLF, 96 h, HLF cells, 96 h
  IC50: > 30000 nM
HM-7, 96 h
  % inhibition at top conc.: 43.55%
HT-1080, 96 h
  % inhibition at top conc.: 68.42%
Hep G2/C3A, 96 h
  % inhibition at top conc.: 23.83%
HepG2/C3A, 96 h, Hep G2/C3A, 96 h
  IC50: > 30000 nM
Homo sapiens, 22Rv1, 96 h, 22Rv1 cells, 96 h
  IC50: 430 nM
Homo sapiens, 769-P, 96 h, 769-P cells, 96 h
  IC50: 1040 nM
Homo sapiens, 786-0, 96 h, 786-O cells, 96 h
  IC50: 1150 nM
Homo sapiens, 8505C
  IC50: > 30000 nM
Homo sapiens, A 172, 96 h, A-172 cells, 96 h
  IC50: > 30000 nM
Homo sapiens, A204, 96 h, A-204 cells, 96 h
  IC50: > 30000 nM
Homo sapiens, A253, 96 h, A253 cells, 96 h
  IC50: > 30000 nM
Homo sapiens, A498, 96 h, A498 cells, 96 h
  IC50: 860 nM
Homo sapiens, A549, 96 h, A549 cells, 96 h
  IC50: 1040 nM
Homo sapiens, A673, 96 h, A-673 cells, 96 h
  IC50: 680 nM
Homo sapiens, A2058, 96 h
  IC50: > 30000 nM
Homo sapiens, A2780, 96 h, A2780 cells, 96 h
  IC50: 400 nM
Homo sapiens, A-375, 96 h
  IC50: > 30000 nM
Homo sapiens, A-427, 96 h, A-427 cells, 96 h
  IC50: > 30000 nM
Homo sapiens, A-431, 96 h
  IC50: 1150 nM
Homo sapiens, ACHN, 96 h, ACHN cells, 96 h
  IC50: 790 nM
Homo sapiens, AGS, 96 h, AGS cells, 96 h
  IC50: > 30000 nM
Homo sapiens, AMO1, 96 h, AMO-1 cells, 96 h
  IC50: 1480 nM
Homo sapiens, AN3-CA, 96 h, AN3 CA, 96 h
  IC50: > 30000 nM
Homo sapiens, ARH-77, ARH-77
  IC50: > 30000 nM
Homo sapiens, ASPC1, 96 h, AsPC-1 cells, 96 h
  IC50: > 30000 nM
Homo sapiens, AU565, AU565
  IC50: 10100 nM
Homo sapiens, BT-20, 96 h, BT-20 cells, 96 h
  IC50: > 30000 nM
Homo sapiens, BT-474, 96 h, BT474 cells, 96 h
  IC50: > 30000 nM
Homo sapiens, BT-483, BT-483
  IC50: > 30000 nM
Homo sapiens, BT-549, 96 h, BT-549 cells, 96 h
  IC50: 450 nM
Homo sapiens, BXPC-3, BxPC-3
  IC50: 540 nM
Homo sapiens, C6661, 96 h, C666-1 cells, 96 h
  IC50: > 30000 nM
Homo sapiens, C-33-A, 96 h, C-33 A cells, 96 h
  IC50: > 30000 nM
Homo sapiens, CA46, 96 h, CA46 cells, 96 h
  IC50: 600 nM
Homo sapiens, CAKI-2, Caki-2
  IC50: > 30000 nM
Homo sapiens, CAL-27, 96 h, CAL-27 cells, 96 h
  IC50: 3950 nM
Homo sapiens, CAL-51, CAL-51
  IC50: 1680 nM
Homo sapiens, CAL-120, CAL-120
  IC50: > 30000 nM
Homo sapiens, CAMA-1, 96 h
  IC50: 690 nM
Homo sapiens, CAPAN-1, Capan-1
  IC50: > 30000 nM
Homo sapiens, CCRF-CEM
  IC50: 580 nM
Homo sapiens, CFPAC-1, CFPAC-1
  IC50: > 30000 nM
Homo sapiens, COLO 205, 96 h
  IC50: 1140 nM
Homo sapiens, COLO 320DM, 96 h, COLO 320DM, 96 h
  IC50: 490 nM
Homo sapiens, Ca-Ski, 96 h, Ca Ski cells, 96 h
  IC50: > 30000 nM
Homo sapiens, Caco-2, 96 h, Caco-2 cells, 96 h
  IC50: > 30000 nM
Homo sapiens, Calu-1, Calu-1
  IC50: 1040 nM
Homo sapiens, Calu-3, 96 h
  IC50: 1750 nM
Homo sapiens, Calu-6, Calu-6
  IC50: > 30000 nM
Homo sapiens, Caov-3, 96 h, Caov-3 cells, 96 h
  IC50: > 30000 nM
Homo sapiens, Capan-2, Capan-2
  IC50: > 30000 nM
Homo sapiens, DLD-1, DLD-1
  IC50: 420 nM
Homo sapiens, DMS-53, 96 h, DMS 53 cells, 96 h
  IC50: 1070 nM

From patent publication US20210278408A1, “METHODS OF TREATMENT OF CANCER WITH SUBSTITUTED PYRROLE AND PYRAZOLE COMPOUNDS AND DIAGNOSIS OF CANCERS SUSCEPTIBLE TO TREATMENT WITH SUBSTITUTED PYRROLE AND PYRAZOLE COMPOUNDS” (Bantam Pharmaceutical, LLC, priority 2018, published 2021)
